Assays:
[1] = molecular target: Calcium/calmodulin-dependent protein kinase type 1B (Homo sapiens) (UniProt Q6P2M8); settings: Compound concentration 1000.0 nM
[2] = tested on: Receptor-type tyrosine-protein kinase FLT3 (Homo sapiens), P36888 [UNDEFINED MUTATION]; settings: Compound concentration 1000.0 nM
[3] = molecular target: RAC-beta serine/threonine-protein kinase (Homo sapiens) (UniProt P31751); settings: Compound concentration 1000.0 nM
[4] = molecular target: Tyrosine-protein kinase Srms (Homo sapiens) (UniProt Q9H3Y6); settings: Compound concentration 1000.0 nM
[5] = molecular target: Cyclin-dependent kinase-like 2 (Homo sapiens) (UniProt Q92772); settings: Compound concentration 1000.0 nM
[6] = tested on: Tyrosine-protein kinase ABL1 (Homo sapiens), P00519 [Q252H]; settings: Compound concentration 1000.0 nM
[7] = molecular target: Homeodomain-interacting protein kinase 4 (Homo sapiens) (UniProt Q8NE63); settings: Compound concentration 1000.0 nM
[8] = molecular target: RAF proto-oncogene serine/threonine-protein kinase (Homo sapiens) (UniProt P04049); settings: Compound concentration 1000.0 nM
[9] = molecular target: Serine/threonine-protein kinase 38 (Homo sapiens) (UniProt Q15208); settings: Compound concentration 1000.0 nM
[10] = molecular target: Tyrosine-protein kinase ABL2 (Homo sapiens) (UniProt P42684); settings: Compound concentration 1000.0 nM
[11] = molecular target: Mitogen-activated protein kinase kinase kinase 14 (Homo sapiens) (UniProt Q99558); settings: Compound concentration 1000.0 nM
[12] = molecular target: Cyclin-dependent kinase 8 (Homo sapiens) (UniProt P49336); settings: Compound concentration 1000.0 nM
[13] = molecular target: Myosin-IIIb (Homo sapiens) (UniProt Q8WXR4); settings: Compound concentration 1000.0 nM
[14] = molecular target: Dual specificity mitogen-activated protein kinase kinase 3 (Homo sapiens) (UniProt P46734); settings: Compound concentration 1000.0 nM
Chain of Dual specificity mitogen-activated protein kinase kinase 3 (Homo sapiens) (P46734 whole entry): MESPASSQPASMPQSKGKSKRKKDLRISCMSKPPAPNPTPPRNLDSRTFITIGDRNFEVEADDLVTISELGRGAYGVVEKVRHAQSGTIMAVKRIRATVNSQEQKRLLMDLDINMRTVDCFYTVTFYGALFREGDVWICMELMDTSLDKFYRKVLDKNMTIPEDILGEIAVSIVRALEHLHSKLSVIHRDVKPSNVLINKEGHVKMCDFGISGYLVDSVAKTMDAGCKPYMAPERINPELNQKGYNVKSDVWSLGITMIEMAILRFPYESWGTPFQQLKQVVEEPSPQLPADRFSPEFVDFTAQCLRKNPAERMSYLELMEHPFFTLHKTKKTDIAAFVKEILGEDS

[15] = molecular target: MAP kinase-interacting serine/threonine-protein kinase 1 (Homo sapiens) (UniProt Q9BUB5); settings: Compound concentration 1000.0 nM
[16] = molecular target: Inhibitor of nuclear factor kappa-B kinase subunit epsilon (Homo sapiens) (UniProt Q14164); settings: Compound concentration 1000.0 nM
[17] = molecular target: Fibroblast growth factor receptor 4 (Homo sapiens) (UniProt P22455); settings: Compound concentration 1000.0 nM
[18] = molecular target: Mitogen-activated protein kinase kinase kinase kinase 5 (Homo sapiens) (UniProt Q9Y4K4); settings: Compound concentration 1000.0 nM
[19] = molecular target: Mitogen-activated protein kinase kinase kinase 11 (Homo sapiens) (UniProt Q16584); settings: Compound concentration 1000.0 nM
[20] = molecular target: Transient receptor potential cation channel subfamily M member 6 (Homo sapiens) (UniProt Q9BX84); settings: Compound concentration 1000.0 nM
[21] = tested on: Mast/stem cell growth factor receptor Kit (Homo sapiens), P10721 [L576P]; settings: Compound concentration 1000.0 nM
[22] = molecular target: Serine/threonine-protein kinase tousled-like 1 (Homo sapiens) (UniProt Q9UKI8); settings: Compound concentration 1000.0 nM
[23] = molecular target: Atypical kinase COQ8B, mitochondrial (Homo sapiens) (UniProt Q96D53); settings: Compound concentration 1000.0 nM
[24] = molecular target: Dual specificity protein kinase CLK3 (Homo sapiens) (UniProt P49761); settings: Compound concentration 1000.0 nM
[25] = molecular target: TGF-beta receptor type-2 (Homo sapiens) (UniProt P37173); settings: Compound concentration 1000.0 nM
[26] = molecular target: Activin receptor type-1B (Homo sapiens) (UniProt P36896); settings: Compound concentration 1000.0 nM
Chain of Activin receptor type-1B (Homo sapiens) (P36896 whole entry): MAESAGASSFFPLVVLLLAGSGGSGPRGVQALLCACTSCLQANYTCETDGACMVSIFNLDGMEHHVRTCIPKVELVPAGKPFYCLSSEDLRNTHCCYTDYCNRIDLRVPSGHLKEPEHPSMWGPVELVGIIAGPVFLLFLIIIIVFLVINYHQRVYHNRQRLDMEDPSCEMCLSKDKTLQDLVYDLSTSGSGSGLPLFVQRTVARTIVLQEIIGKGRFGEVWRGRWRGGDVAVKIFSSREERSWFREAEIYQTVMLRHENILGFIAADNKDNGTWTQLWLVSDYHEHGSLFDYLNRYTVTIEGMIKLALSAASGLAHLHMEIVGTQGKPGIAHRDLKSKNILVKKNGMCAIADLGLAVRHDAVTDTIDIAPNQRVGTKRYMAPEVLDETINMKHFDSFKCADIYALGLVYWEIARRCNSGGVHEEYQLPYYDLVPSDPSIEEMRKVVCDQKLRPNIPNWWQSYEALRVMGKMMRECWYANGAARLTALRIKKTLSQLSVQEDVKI

[27] = molecular target: Serine/threonine-protein kinase/endoribonuclease IRE1 (Homo sapiens) (UniProt O75460); settings: Compound concentration 1000.0 nM
[28] = molecular target: Serine/threonine-protein kinase MRCK gamma (Homo sapiens) (UniProt Q6DT37); settings: Compound concentration 1000.0 nM
[29] = tested on: Proto-oncogene tyrosine-protein kinase receptor Ret (Homo sapiens), P07949 [V804L]; settings: Compound concentration 1000.0 nM
[30] = molecular target: TRAF2 and NCK-interacting protein kinase (Homo sapiens) (UniProt Q9UKE5); settings: Compound concentration 1000.0 nM
[31] = molecular target: 5-hydroxytryptamine receptor 6 (Homo sapiens) (UniProt P50406); settings: Compound concentration 10.0 uM
Chain of 5-hydroxytryptamine receptor 6 (Homo sapiens) (P50406 whole entry): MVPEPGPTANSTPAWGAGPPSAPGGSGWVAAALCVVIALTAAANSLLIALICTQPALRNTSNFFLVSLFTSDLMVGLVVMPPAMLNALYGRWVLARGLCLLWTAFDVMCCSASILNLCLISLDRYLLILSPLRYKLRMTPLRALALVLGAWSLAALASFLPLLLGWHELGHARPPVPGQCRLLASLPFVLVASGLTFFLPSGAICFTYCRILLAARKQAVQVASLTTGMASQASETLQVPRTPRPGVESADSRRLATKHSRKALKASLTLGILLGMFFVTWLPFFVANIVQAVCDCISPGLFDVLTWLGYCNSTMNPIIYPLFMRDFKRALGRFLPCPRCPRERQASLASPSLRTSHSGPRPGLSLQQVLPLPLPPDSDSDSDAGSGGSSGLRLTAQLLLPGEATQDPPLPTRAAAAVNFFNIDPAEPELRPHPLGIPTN

[32] = molecular target: Fibroblast growth factor receptor 3 (Homo sapiens) (UniProt P22607); settings: Compound concentration 1000.0 nM
[33] = molecular target: Cyclin-dependent kinase 17 (Homo sapiens) (UniProt Q00537); settings: Compound concentration 1000.0 nM
[34] = molecular target: Beta-2 adrenergic receptor (Homo sapiens) (UniProt P07550); settings: Compound concentration 10.0 uM
Chain of Beta-2 adrenergic receptor (Homo sapiens) (P07550 whole entry, looked up): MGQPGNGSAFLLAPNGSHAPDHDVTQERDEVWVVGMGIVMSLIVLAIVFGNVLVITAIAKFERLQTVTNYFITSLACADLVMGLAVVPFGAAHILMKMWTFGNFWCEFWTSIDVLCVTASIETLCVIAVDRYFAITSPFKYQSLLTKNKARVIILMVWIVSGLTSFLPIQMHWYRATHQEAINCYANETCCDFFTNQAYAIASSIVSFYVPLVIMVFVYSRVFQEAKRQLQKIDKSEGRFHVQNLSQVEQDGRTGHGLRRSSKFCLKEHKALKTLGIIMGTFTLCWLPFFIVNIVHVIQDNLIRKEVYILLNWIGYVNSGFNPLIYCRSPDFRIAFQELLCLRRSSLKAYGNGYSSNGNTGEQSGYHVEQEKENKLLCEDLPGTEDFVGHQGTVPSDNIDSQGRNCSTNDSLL

[35] = molecular target: Death-associated protein kinase 3 (Homo sapiens) (UniProt O43293); settings: Compound concentration 1000.0 nM
Chain of Death-associated protein kinase 3 (Homo sapiens) (O43293 whole entry, looked up): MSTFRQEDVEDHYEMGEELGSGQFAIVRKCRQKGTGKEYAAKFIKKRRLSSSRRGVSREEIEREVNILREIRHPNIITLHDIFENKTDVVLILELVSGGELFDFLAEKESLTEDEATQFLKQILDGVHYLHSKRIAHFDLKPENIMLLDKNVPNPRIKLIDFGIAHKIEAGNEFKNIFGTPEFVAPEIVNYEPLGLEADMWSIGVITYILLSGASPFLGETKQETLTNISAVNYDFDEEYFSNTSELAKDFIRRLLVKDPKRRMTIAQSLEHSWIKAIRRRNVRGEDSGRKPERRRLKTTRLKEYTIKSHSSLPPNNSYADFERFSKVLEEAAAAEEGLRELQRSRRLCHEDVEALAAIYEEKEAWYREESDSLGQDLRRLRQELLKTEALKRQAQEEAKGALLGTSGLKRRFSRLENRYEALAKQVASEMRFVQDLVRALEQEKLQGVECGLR

[36] = tested on: Epidermal growth factor receptor (Homo sapiens), P00533 [L858R,T790M]; settings: Compound concentration 1000.0 nM
[37] = molecular target: Serine/threonine-protein kinase WNK4 (Homo sapiens) (UniProt Q96J92); settings: Compound concentration 1000.0 nM
[38] = tested on: Receptor-type tyrosine-protein kinase FLT3 (Homo sapiens), P36888 [UNDEFINED MUTATION]; settings: Compound concentration 1000.0 nM; remark: listed apart in the source
[39] = tested on: Phosphatidylinositol 4,5-bisphosphate 3-kinase catalytic subunit alpha isoform (Homo sapiens), P42336 [C420R]; settings: Compound concentration 1000.0 nM
Chain of Phosphatidylinositol 4,5-bisphosphate 3-kinase catalytic subunit alpha isoform (Homo sapiens), P42336 [C420R] (P42336 whole entry C420R, canonical isoform): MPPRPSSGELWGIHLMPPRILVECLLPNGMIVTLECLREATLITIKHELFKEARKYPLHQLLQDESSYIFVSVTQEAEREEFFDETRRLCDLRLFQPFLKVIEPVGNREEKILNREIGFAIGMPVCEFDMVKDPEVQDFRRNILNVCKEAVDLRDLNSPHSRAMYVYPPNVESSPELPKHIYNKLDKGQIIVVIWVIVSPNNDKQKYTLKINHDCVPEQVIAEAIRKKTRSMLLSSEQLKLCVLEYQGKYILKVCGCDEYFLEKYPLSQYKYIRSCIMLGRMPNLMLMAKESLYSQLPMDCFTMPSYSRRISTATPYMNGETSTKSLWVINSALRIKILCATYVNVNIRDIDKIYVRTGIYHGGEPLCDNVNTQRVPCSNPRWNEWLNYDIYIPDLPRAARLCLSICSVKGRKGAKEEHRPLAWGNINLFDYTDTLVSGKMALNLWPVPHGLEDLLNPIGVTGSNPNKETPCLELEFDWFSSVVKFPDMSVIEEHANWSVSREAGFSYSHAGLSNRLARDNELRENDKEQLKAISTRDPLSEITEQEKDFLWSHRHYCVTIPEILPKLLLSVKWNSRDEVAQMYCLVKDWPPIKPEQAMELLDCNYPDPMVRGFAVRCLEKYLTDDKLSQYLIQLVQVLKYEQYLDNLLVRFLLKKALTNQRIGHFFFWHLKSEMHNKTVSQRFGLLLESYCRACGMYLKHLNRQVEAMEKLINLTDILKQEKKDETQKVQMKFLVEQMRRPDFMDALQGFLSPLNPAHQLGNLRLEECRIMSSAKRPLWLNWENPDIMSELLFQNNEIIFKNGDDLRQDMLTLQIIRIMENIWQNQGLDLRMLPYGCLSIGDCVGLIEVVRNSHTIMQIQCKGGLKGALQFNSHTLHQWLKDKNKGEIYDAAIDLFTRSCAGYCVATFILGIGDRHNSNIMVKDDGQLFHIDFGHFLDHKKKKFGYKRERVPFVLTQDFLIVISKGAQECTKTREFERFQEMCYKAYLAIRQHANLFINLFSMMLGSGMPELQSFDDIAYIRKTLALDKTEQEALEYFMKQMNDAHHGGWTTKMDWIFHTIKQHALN

[40] = molecular target: Phosphatidylinositol 4,5-bisphosphate 3-kinase catalytic subunit delta isoform (Homo sapiens) (UniProt O00329); settings: Compound concentration 1000.0 nM
[41] = molecular target: Interleukin-1 receptor-associated kinase 3 (Homo sapiens) (UniProt Q9Y616); settings: Compound concentration 1000.0 nM
[42] = molecular target: Phosphatidylinositol 4-kinase beta (Homo sapiens) (UniProt Q9UBF8); settings: Compound concentration 1000.0 nM
Chain of Phosphatidylinositol 4-kinase beta (Homo sapiens) (Q9UBF8 2-816 limits assumed): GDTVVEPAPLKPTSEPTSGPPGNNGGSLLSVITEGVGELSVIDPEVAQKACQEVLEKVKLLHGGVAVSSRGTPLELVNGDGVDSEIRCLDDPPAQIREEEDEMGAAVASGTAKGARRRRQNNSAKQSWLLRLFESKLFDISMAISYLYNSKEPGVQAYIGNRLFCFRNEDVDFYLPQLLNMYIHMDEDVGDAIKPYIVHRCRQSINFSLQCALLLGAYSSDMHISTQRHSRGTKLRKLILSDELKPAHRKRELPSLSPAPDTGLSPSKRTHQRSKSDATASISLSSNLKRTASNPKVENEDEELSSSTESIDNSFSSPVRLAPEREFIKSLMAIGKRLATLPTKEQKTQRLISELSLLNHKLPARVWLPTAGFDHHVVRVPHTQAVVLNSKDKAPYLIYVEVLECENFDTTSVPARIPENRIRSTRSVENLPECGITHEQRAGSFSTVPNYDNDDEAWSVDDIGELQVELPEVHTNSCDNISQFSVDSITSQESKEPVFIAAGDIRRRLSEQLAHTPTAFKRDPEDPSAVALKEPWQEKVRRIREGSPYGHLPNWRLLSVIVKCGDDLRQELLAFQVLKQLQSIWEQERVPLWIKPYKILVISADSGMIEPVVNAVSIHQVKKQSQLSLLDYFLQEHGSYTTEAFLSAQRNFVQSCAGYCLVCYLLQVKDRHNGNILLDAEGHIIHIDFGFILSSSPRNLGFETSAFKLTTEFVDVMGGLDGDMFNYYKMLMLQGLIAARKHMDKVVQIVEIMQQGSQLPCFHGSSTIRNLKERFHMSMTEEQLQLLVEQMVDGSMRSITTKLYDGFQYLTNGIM

[43] = molecular target: MAP kinase-interacting serine/threonine-protein kinase 2 (Homo sapiens) (UniProt Q9HBH9); settings: Compound concentration 1000.0 nM
[44] = molecular target: Casein kinase I isoform alpha-like (Homo sapiens) (UniProt Q8N752); settings: Compound concentration 1000.0 nM

Chain of Receptor-type tyrosine-protein kinase FLT3 (Homo sapiens), P36888 [UNDEFINED MUTATION] (P36888 whole entry, looked up, stated change not applied, canonical isoform): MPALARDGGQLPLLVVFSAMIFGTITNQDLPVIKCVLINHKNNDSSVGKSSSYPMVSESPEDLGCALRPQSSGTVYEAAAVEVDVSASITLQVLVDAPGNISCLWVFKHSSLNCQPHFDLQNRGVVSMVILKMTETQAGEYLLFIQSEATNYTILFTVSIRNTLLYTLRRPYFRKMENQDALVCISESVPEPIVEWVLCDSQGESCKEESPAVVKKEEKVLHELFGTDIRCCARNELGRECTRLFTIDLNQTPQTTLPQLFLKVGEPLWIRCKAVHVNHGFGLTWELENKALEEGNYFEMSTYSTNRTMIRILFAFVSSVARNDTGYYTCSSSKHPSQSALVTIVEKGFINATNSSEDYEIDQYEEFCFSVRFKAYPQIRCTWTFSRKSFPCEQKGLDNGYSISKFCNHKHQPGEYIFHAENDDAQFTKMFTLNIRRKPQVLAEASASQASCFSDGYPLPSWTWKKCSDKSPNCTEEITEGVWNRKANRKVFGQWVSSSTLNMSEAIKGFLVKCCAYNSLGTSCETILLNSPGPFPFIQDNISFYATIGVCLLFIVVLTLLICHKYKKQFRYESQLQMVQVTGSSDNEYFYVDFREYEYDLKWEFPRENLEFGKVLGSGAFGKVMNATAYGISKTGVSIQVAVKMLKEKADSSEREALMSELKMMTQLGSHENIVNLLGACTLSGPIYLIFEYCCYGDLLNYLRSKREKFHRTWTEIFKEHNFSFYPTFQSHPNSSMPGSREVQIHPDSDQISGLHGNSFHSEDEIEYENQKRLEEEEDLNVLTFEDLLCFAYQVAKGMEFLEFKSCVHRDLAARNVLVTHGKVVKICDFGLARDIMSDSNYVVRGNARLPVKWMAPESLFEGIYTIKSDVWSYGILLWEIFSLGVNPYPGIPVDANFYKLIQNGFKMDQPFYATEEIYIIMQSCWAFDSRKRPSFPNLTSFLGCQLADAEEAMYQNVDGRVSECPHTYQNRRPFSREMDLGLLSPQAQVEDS

O=C(Nc1cccnn1)N1CC(C/C=C/c2cncc(Oc3ccc(C(F)(F)F)cn3)n2)C1
active: residual activity [37] 0%
inactive: residual activity [1] 63% | residual activity [2] 76% | residual activity [3] 100% | residual activity [4] 67% | residual activity [5] 100% | residual activity [6] 100% | residual activity [7] 92% | residual activity [8] 100% | residual activity [9] 99% | residual activity [10] 100% | residual activity [11] 77% | residual activity [12] 100% | residual activity [13] 100% | residual activity [14] 72% | residual activity [15] 67% | residual activity [16] 77% | residual activity [17] 100% | residual activity [18] 94% | residual activity [19] 100% | residual activity [20] 73% | residual activity [21] 88% | residual activity [22] 98% | residual activity [23] 94% | residual activity [24] 100% | residual activity [25] 100% | residual activity [26] 79% | residual activity [27] 67% | residual activity [28] 100% | residual activity [29] 93% | residual activity [30] 92% | inhibition [31] 7.76% | residual activity [32] 97% | residual activity [33] 100% | inhibition [34] 16.8% | residual activity [35] 100% | residual activity [36] 82% | residual activity [38] 100% | residual activity [39] 66% | residual activity [40] 64% | residual activity [41] 100% | residual activity [42] 91% | residual activity [43] 77% | residual activity [44] 100%

O=C(Nc1cccnn1)N1CCC(=Cc2cccc(Oc3ccc(C(F)(F)F)cn3)c2)CC1
active: residual activity [21] 0%
inactive: residual activity [1] 100% | residual activity [2] 100% | residual activity [3] 81% | residual activity [4] 95% | residual activity [5] 92% | residual activity [6] 75% | residual activity [7] 100% | residual activity [8] 63% | residual activity [9] 100% | residual activity [10] 99% | residual activity [11] 100% | residual activity [12] 100% | residual activity [13] 100% | residual activity [14] 100% | residual activity [15] 100% | residual activity [16] 100% | residual activity [17] 100% | residual activity [18] 100% | residual activity [19] 74% | residual activity [20] 98% | residual activity [22] 100% | residual activity [23] 81% | residual activity [24] 100% | residual activity [25] 76% | residual activity [26] 88% | residual activity [27] 92% | residual activity [28] 84% | residual activity [29] 86% | residual activity [30] 100% | inhibition [31] 40.6% | residual activity [32] 83% | residual activity [33] 100% | inhibition [34] 0.51% | residual activity [35] 79% | residual activity [36] 99% | residual activity [37] 96% | residual activity [38] 100% | residual activity [39] 100% | residual activity [40] 81% | residual activity [41] 86% | residual activity [42] 100% | residual activity [43] 100% | residual activity [44] 76%
